According to the NIST ThermoML archive (doi:10.1021/je101264r):

Experiment: mn = molality of the nth substance listed, in mol/kg
Settings: 298.15 K, 101 kPa, Liquid, rubidium clock sound velocity meter

Nc1ncnc2c1ncn2[C@@H]1O[C@H](CO)[C@@H](O)[C@H]1O [β-adenosine] + O
Settings	speed of sound [m/s]
m1 = 0.01701	1497.8
m1 = 0.01736	1497.8
m1 = 0.01799	1497.8
m1 = 0.01851	1497.9
m1 = 0.01911	1497.9
m1 = 0.0195	1497.9
m1 = 0.02001	1498
m1 = 0.02054	1498
